Test results as given in paper PMC6213309, “Antibacterial Activity and Mechanism of Action of Bovine Lactoferricin Derivatives with Symmetrical Amino Acid Sequences” (International Journal of Molecular Sciences, 2018).
Like-named read-outs stand apart in the source and are kept apart here. Ends that are not written are not given here.

Key:
[1] = test system: S. epidermidis ATCC 12228; assay type: cell-based
Experimental: (§2) The antimicrobial activity of the peptides were defined as the minimum inhibitory concentrations (MIC) according to the Clinical and Laboratory Standards Institute broth microdilution method as described previously [47]. Briefly, 50 μL two-fold serial dilutions of peptides (with final concentrations ranging from 0 μM to 256 μM) and 50 μL bacterial fluids diluted with MHB were added to 96-well microtiter plates. The plates were then incubated at 37 °C for 18 h.

[2] = test system: Salmonella typhimurium C 7731; assay type: cell-based
Experimental: as §2

E. coli ATCC25922 = settings: for MIC in the presence of Ca2+ / MIC in the presence of Fe3+ / MIC in the presence of K+ / MIC in the presence of Mg2+ / MIC in the presence of NH4+ / MIC in the presence of Na+ / MIC in the presence of Zn2+ / MIC, Control (enzymatic stability) / MIC, Control (salt stability) / MIC, Control (thermal stability): ATCC25922, 18 h; for MIC after Trypsin: peptide treated with 1 mg/mL trypsin
Experimental: (§1) The antimicrobial activity of the peptides were defined as the minimum inhibitory concentrations (MIC) according to the Clinical and Laboratory Standards Institute broth microdilution method as described previously. Briefly, 50 μL two-fold serial dilutions of peptides (with final concentrations ranging from 0 μM to 256 μM) and 50 μL bacterial fluids diluted with MHB were added to 96-well microtiter plates. The plates were then incubated at 37 °C for 18 h.
We assessed the salt stability, thermal stability, and enzymatic stability of the AMPs. Briefly, E. coli ATCC25922 was selected as the test bacterium. The control group was untreated peptides. Different concentrations of salts (150 mM NaCl, 4.5 mM KCl, 6 μM NH4Cl, 1 mM MgCl2, […], 8 mM […], 2.5 mM CaCl2, and 4 mM FeCl3) were added to the incubation buffer to examine the effect of each salt on the antimicrobial activities of the peptides. AMPs were treated for 1 h at 100 °C to test the thermal stability. AMPs were also treated with trypsin, pepsin, papain, and protease K at a concentration of 1 mg/mL for 1 h at 37 °C to test enzyme stability.

S. aureus ATCC 29213 = assay type: cell-based
E. coli UB 1005 = assay type: cell-based; settings: UB 1005, 18 h
Experimental: as §2

E. coli ATCC 25922 = assay type: cell-based; settings: ATCC25922, 18 h
Experimental: as §2

[3] = test system: Salmonella enterica subsp. CMCC 50071; settings: MHB, 37 °C, 18 h, peptides 0-256 μM, triplicate samples
Experimental: as §1

S. aureus ATCC 25923 = assay type: cell-based
[4] = test system: Salmonella pullorum C 7913; assay type: cell-based; settings: 18 h
[5] = test system: Salmonella typhimurium ATCC 14028; assay type: cell-based
Experimental: as §2

HEK293 cells = assay: Cytotoxicity, MTT assay; assay type: cell-based, human; settings: 20–24 h
Experimental: The cytotoxicity of each peptide was determined in HEK293 cells using the thiazolylblue (MTT) assay as described by Zhu. Briefly, HEK293 cells were subcultured overnight in 96-well plates with 10% fetal calf serum and […] at 37 °C in 5% CO2. The cell suspension was then prepared. Two-fold serial dilutions of the peptides were prepared using DMEM. Cell suspensions were added to the plates and incubated for 20–24 h at 37 °C in a cell incubator. Next, 40 μL MTT solution was added to every well, and the plates were incubated for 4 h at 37 °C. Finally, 150 μL DMSO was added to each well, the plates were shaken for 10 min, and the absorbance was measured at 492 nm using a microplate reader.

Compound	MIC in the presence of Ca2+ (E. coli ATCC25922) [µM]	MIC in the presence of Fe3+ (E. coli ATCC25922) [µM]	MIC in the presence of K+ (E. coli ATCC25922) [µM]	MIC in the presence of Mg2+ (E. coli ATCC25922) [µM]	MIC in the presence of NH4+ (E. coli ATCC25922) [µM]	MIC in the presence of Na+ (E. coli ATCC25922) [µM]	MIC in the presence of Zn2+ (E. coli ATCC25922) [µM]	MIC, Control (enzymatic stability) (E. coli ATCC25922) [µM]	MIC, Control (salt stability) (E. coli ATCC25922) [µM]	MIC, Control (thermal stability) (E. coli ATCC25922) [µM]	MIC after Trypsin (E. coli ATCC25922; E. coli ATCC25922, 1 h, 37 °C) [µM]	MIC (E. coli UB 1005) [µM]	MIC (E. coli ATCC 25922) [µM]	MIC [3] [µM]	other results
KKRRWQWRRKK-NH2 [KK-KK]	16	8	16	64	8	16	8	32	32	32	>128	32	32	128	MIC ([1]; S. epidermidis ATCC 12228, MHB, 37 °C, 18 h, peptides 0-256 μM, triplicate samples): >128 µM; MIC ([2]; Salmonella typhimurium C 7731, MHB, 37 °C, 18 h, peptides 0-256 μM, triplicate samples): >128 µM; MIC following heating at 100 °C (E. coli ATCC25922; E. coli ATCC25922, peptide treated 1 h at 100 °C): >128 µM; MIC after Papain (E. coli ATCC25922; E. coli ATCC25922, peptide treated with 1 mg/mL papain, 1 h, 37 °C): >128 µM; MIC after Pepsin (E. coli ATCC25922; E. coli ATCC25922, peptide treated with 1 mg/mL pepsin, 1 h, 37 °C): >128 µM; MIC after Protease K (E. coli ATCC25922; E. coli ATCC25922, peptide treated with 1 mg/mL protease K, 1 h, 37 °C): >128 µM; MIC (S. aureus ATCC 29213; S. aureus ATCC 29213, MHB, 37 °C, 18 h, peptides 0-256 μM, triplicate samples): >128 µM; MIC (S. aureus ATCC 25923; S. aureus ATCC 25923, MHB, 37 °C, 18 h, peptides 0-256 μM, triplicate samples): 128 µM; MIC ([4]; Salmonella pullorum C 7913, MHB, 37 °C, peptides 0-256 μM, triplicate samples): 128 µM; MIC ([5]; Salmonella typhimurium ATCC 14028, MHB, 37 °C, 18 h, peptides 0-256 μM, triplicate samples): >128 µM
FPRRWQWRRPF-NH2 [FP-PF]	8	4	8	8	8	64	8	4	4	4	128	8	4	128	MIC ([1]; ATCC 12228, 18 h): 64 µM; MIC ([2]; murium C 7731, 18 h): 64 µM; MIC after Papain (E. coli ATCC25922; ATCC25922, 1 h): 8 µM; MIC after Pepsin (E. coli ATCC25922; ATCC25922, 1 h): 16 µM; MIC after Protease K (E. coli ATCC25922; ATCC25922, 1 h): 4 µM; MIC following heating at 100 °C (E. coli ATCC25922; ATCC25922, 1 h): 8 µM; MIC (S. aureus ATCC 29213; ATCC 29213, 18 h): 32 µM; MIC (S. aureus ATCC 25923; ATCC 25923, 18 h): 32 µM; MIC [4]: 16 µM; MIC ([5]; ATCC 14028, 18 h): 32 µM
CC[C@H](C)[C@H](NC(=O)CN)C(=O)NCC(=O)N[C@@H](C)C(=O)N[C@H](C(=O)N[C@@H](CC(C)C)C(=O)N[C@@H](CCCCN)C(=O)N[C@H](C(=O)N[C@@H](CC(C)C)C(=O)N[C@H](C(=O)N[C@H](C(=O)NCC(=O)N[C@@H](CC(C)C)C(=O)N1CCC[C@H]1C(=O)N[C@@H](C)C(=O)N[C@@H](CC(C)C)C(=O)N[C@H](C(=O)N[C@@H](CO)C(=O)N[C@@H](Cc1c[nH]c2ccccc12)C(=O)N[C@H](C(=O)N[C@@H](CCCCN)C(=O)N[C@@H](CCCNC(=N)N)C(=O)N[C@@H](CCCCN)C(=O)N[C@@H](CCCNC(=N)N)C(=O)N[C@@H](CCC(N)=O)C(=O)N[C@@H](CCC(N)=O)C(N)=O)[C@@H](C)CC)[C@@H](C)CC)[C@@H](C)O)[C@@H](C)O)C(C)C)C(C)C [melittin]	–	–	–	–	–	–	–	–	–	–	–	–	–	–	cell viability (HEK293 cells; 4 μM): 41.95%; cell viability (HEK293 cells; 8 μM): 23.40%; cell viability (HEK293 cells; 16 μM): 0%
